Where a name gives a salt, the structure may show the parent alone.

Experimental findings from patent US8802673B2, “Heterocyclic amine derivatives” (Hoffmann-La Roche Inc, priority 2011, dated 2014) are described below.

The target of one experiment is mouse TAAR1 (Mus musculus (Mouse), UniProt Q923Y8). Description: Radioligand binding assay on mouse TAAR1. The following applies: mouse TAAR1 (first value of the cell), HEK-293 membranes; read-out: Ki (μM) mouse/rat. As for the experimental part: (§1) Construction of TAAR Expression Plasmids and Stably Transfected Cell Lines
Chain of mouse TAAR1 (Q923Y8 whole entry): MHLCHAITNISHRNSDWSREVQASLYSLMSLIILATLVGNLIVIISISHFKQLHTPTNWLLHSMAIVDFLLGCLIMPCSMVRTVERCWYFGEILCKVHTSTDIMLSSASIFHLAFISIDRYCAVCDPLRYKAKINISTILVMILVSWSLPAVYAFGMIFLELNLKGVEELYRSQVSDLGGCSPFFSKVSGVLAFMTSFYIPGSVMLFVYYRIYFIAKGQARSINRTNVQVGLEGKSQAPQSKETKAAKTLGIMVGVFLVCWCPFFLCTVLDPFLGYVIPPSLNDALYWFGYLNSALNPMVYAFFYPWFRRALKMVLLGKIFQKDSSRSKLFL
(§2) For the construction of expression plasmids the coding sequences of human, rat and mouse TAAR 1 were amplified from genomic DNA essentially as described by Lindemann et al.. The Expand High Fidelity PCR System (Roche Diagnostics) was used with 1.5 mM Mg^2+ and purified PCR products were cloned into pCR2.1-TOPO cloning vector (Invitrogen) following the instructions of the manufacturer. PCR products were subcloned into the pIRESneo2 vector (BD Clontech, Palo Alto, Calif.), and expression vectors were sequence verified before introduction in cell lines.
(§3) HEK293 cells (ATCC #CRL-1573) were cultured essentially as described by Lindemann et al. (2005). For the generation of stably transfected cell lines HEK293 cells were transfected with the pIRESneo2 expression plasmids containing the TAAR coding sequences (described above) with Lipofectamine 2000 (Invitrogen) according to the instructions of the manufacturer, and 24 hrs post transfection the culture medium was supplemented with 1 mg/ml G418 (Sigma, Buchs, Switzerland). After a culture period of about 10 d clones were isolated, expanded and tested for responsiveness to trace amines (all compounds purchased from Sigma) with the cAMP Biotrak Enzyme immunoassay (EIA) System (Amersham) following the non-acetylation EIA procedure provided by the manufacturer.
Radioligand Binding Assay on Mouse TAAR1
Membrane Preparation and Radioligand Binding.
(§4) HEK-293 cells stably expressing mouse TAAR1 were maintained at 37° C. and 5% CO2 in DMEM high glucose medium, containing fetal calf serum (10%, heat inactivated for 30 min at 56° C.), penicillin/streptomycin (1%), and 375 μg/ml geneticin (Gibco). Cells were released from culture flasks using trypsin/EDTA, harvested, washed twice with ice-cold PBS (without Ca^2+ and Mg^2+), pelleted at 1,000 rpm for 5 min at 4° C., frozen and stored at −80° C. Frozen pellets were suspended in 20 ml HEPES-NaOH (20 mM, pH 7.4) containing 10 mM EDTA and homogenized with a Polytron (PT 6000, Kinematica) at 14,000 rpm for 20 s. The homogenate was centrifuged at 48,000×g for 30 min at 4° C. Subsequently, the supernatant was removed and discarded, and the pellet resuspended in 20 ml HEPES-NaOH (20 mM, pH 7.4) containing 0.1 mM EDTA using the Polytron (20 s at 14,000 rpm). This procedure was repeated and the final pellet resuspended in HEPES-NaOH containing 0.1 mM EDTA and homogenized using the Polytron. Typically, aliquots of 2 ml membrane portions were stored at −80° C. With each new membrane batch the dissociation constant (Kd) was determined via a saturation curve. […] All compounds were tested at a broad range of concentrations (10 pM to 10 μM) in duplicates. […] The 96 deep well plates were incubated for 1 hr at 4° C. Incubations were terminated by rapid filtration through Unifilter-96 plates (Packard Instrument Company) and glass filters GF/C (Perkin Elmer) presoaked for 1 hr in polyethylenimine (0.3%) and washed 3 times with 1 ml of cold binding buffer. After addition of 45 μl of Microscint 40 (PerkinElmer) the Unifilter-96 plate was sealed and after 1 hr the ratioactivity counted using a TopCount Microplate Scintillation Counter (Packard Instrument Company).

A further experiment deals with rat TAAR1 (Rattus norvegicus (Rat), UniProt Q923Y9). Description: Radioligand binding assay on rat TAAR1. Particulars: rat TAAR1 (second value of the cell), HEK-293 membranes; read-out: Ki (μM) mouse/rat. As for the experimental part:
as §1, §2, §3
Radioligand Binding Assay on Rat TAAR1
Membrane Preparation and Radioligand Binding
as §4, with “rat” for “mouse”

Chain of rat TAAR1 (Q923Y9 whole entry): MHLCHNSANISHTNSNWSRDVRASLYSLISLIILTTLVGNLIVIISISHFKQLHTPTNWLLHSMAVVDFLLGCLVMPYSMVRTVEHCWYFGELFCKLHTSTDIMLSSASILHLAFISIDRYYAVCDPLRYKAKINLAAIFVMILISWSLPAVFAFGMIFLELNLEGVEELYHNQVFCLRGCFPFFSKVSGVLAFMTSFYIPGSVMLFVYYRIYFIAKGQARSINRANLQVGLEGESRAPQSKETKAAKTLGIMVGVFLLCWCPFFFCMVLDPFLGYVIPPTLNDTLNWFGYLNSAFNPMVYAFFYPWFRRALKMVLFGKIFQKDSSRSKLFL

For `Cc1cc(C(F)(F)F)nc(Nc2ccc([C@@H]3CNCCO3)cc2)n1` [Example 178, (4-Methyl-6-trifluoromethyl-pyrimidin-2-yl)-((R)-4-morpholin-2-yl-phenyl)-amine], the Ki on mouse TAAR1 came to 0.0043 µM; on rat TAAR1, 0.0298 µM.

For the molecule `FC(F)Cn1ccc(Nc2ccc(C3CNCCO3)cc2)n1` (racemic) [Example 150, (RS)-[1-(2,2-Difluoro-ethyl)-1H-pyrazol-3-yl]-(4-morpholin-2-yl-phenyl)-amine], the Ki on mouse TAAR1 was determined as 0.0134 µM; on rat TAAR1, 0.149 µM.

Turning to `FC(F)(F)c1cnc(Nc2ccc([C@H]3CNCCO3)cc2)nc1` [Example 19, ((S)-4-Morpholin-2-yl-phenyl)-(5-trifluoromethyl-pyrimidin-2-yl)-amine], the Ki on mouse TAAR1 was determined as 0.0056 µM; at rat TAAR1 it was 0.0236 µM.

Regarding `Brc1ccc(CNc2ccc([C@H]3CNCCO3)cc2)cc1` [Example 45, (4-Bromo-benzyl)-((S)-4-morpholin-2-yl-phenyl)-amine], the Ki was 0.0061 µM at mouse TAAR1 and 0.126 µM at rat TAAR1.

Consider `c1ccc(Cn2ccc(Nc3ccc([C@H]4CNCCO4)cc3)n2)cc1` [Example 161, (1-Benzyl-1H-pyrazol-3-yl)-((S)-4-morpholin-2-yl-phenyl)-amine], for which the Ki at mouse TAAR1 is 0.0016 µM; on rat TAAR1, 0.223 µM.

Regarding `Fc1ccc(CNc2ccc([C@H]3CNCCO3)cc2)cc1` [Example 31, (4-Fluoro-benzyl)-((S)-4-morpholin-2-yl-phenyl)-amine], the Ki at mouse TAAR1 is 0.0452 µM; on rat TAAR1 it was 0.222 µM.

On to `Cc1cc(C)nc(Nc2ccc(C3CCNC3)cc2)n1` (racemic) [Example 1, (RS)-(4,6-Dimethyl-pyrimidin-2-yl)-(4-pyrrolidin-3-yl-phenyl)-amine; hydrochloride], for which the Ki was found to be 0.074 µM on mouse TAAR1 and 1.51 µM at rat TAAR1.

As to `CCc1ccc(CNc2ccc([C@H]3CNCCO3)cc2)cc1` [Example 36, (4-Ethyl-benzyl)-((S)-4-morpholin-2-yl-phenyl)-amine], the Ki on mouse TAAR1 stood at 0.0288 µM; on rat TAAR1, 0.163 µM.

With `CCc1cnc(Nc2ccc([C@@H]3CNCCO3)cc2F)nc1` [Example 116, (5-Ethyl-pyrimidin-2-yl)-((R)-2-fluoro-4-morpholin-2-yl-phenyl)-amine], the results for the Ki at mouse TAAR1 and at rat TAAR1 were 0.0039 µM and 0.007 µM, respectively.

`Cc1cnc(Nc2ccc([C@H]3CNCCO3)cc2)nc1` [Example 18, (5-Methyl-pyrimidin-2-yl)-((S)-4-morpholin-2-yl-phenyl)-amine]: the Ki on mouse TAAR1 turned out to be 0.0054 µM; at rat TAAR1, 0.313 µM.

For `Fc1cc([C@H]2CNCCO2)ccc1Nc1ncc(Cl)cn1` [Example 131, (5-Chloro-pyrimidin-2-yl)-((S)-2-fluoro-4-morpholin-2-yl-phenyl)-amine], the Ki on mouse TAAR1 turned out to be 0.0028 µM; on rat TAAR1, 0.0379 µM.

In the case of `Clc1cc(Nc2ncc(C3CC3)cn2)ccc1[C@H]1CNCCO1` [Example 193, ((S)-3-Chloro-4-morpholin-2-yl-phenyl)-(5-cyclopropyl-pyrimidin-2-yl)-amine], the Ki was 0.0038 µM at mouse TAAR1 and 0.0196 µM on rat TAAR1.

Take `Fc1cc([C@H]2CNCCO2)ccc1Nc1ncc(C(F)(F)F)cn1` [Example 135, ((S)-2-Fluoro-4-morpholin-2-yl-phenyl)-(5-trifluoromethyl-pyrimidin-2-yl)-amine]: the Ki at mouse TAAR1 is 0.0057 µM; on rat TAAR1 it was 0.0198 µM.

For `COCCOc1cnc(Nc2ccc([C@@H]3CNCCO3)cc2F)nc1` [Example 151, ((R)-2-Fluoro-4-morpholin-2-yl-phenyl)-[5-(2-methoxy-ethoxy)-pyrimidin-2-yl]-amine], the Ki was 0.048 µM at mouse TAAR1 and 0.0954 µM at rat TAAR1.

For `c1cc([C@@H]2CNCCO2)ccc1Nc1ncc(C2CC2)cn1` [Example 86, (5-Cyclopropyl-pyrimidin-2-yl)-((R)-4-morpholin-2-yl-phenyl)-amine], the Ki on mouse TAAR1 came out at 0.0024 µM; on rat TAAR1, 0.009 µM.

Turning to `c1cc([C@H]2CNCCO2)ccc1Nc1ccc2c(c1)OCO2` [Example 65, (S)—N-(4-(Morpholin-2-yl)phenyl)benzo[d][1,3]dioxol-5-amine], the Ki at mouse TAAR1 stood at 0.0131 µM; on rat TAAR1, 0.629 µM.

With `c1cc(Nc2ccc(C3CNCCO3)cc2)[nH]n1` (racemic) [Example 155, (RS)-(4-Morpholin-2-yl-phenyl)-(1H-pyrazol-3-yl)-amine], on mouse TAAR1, the Ki stood at 0.6 µM.

As for `Fc1cc(C2CNCCO2)ccc1Nc1ccc(Cl)cn1` (racemic) [Example 99, (RS)-5-Chloro-N-(2-fluoro-4-(morpholin-2-yl)phenyl)pyridin-2-amine], the Ki on rat TAAR1 is 0.0185 µM.

For the molecule `Brc1cnc(Nc2ccc([C@@H]3CNCCO3)cc2)nc1` [Example 94, (5-Bromo-pyrimidin-2-yl)-((R)-4-morpholin-2-yl-phenyl)-amine], at rat TAAR1, the Ki is 0.0489 µM.

With `Fc1cc([C@H]2CNCCO2)ccc1Nc1ncc(C2CC2)cn1` [Example 119, (5-Cyclopropyl-pyrimidin-2-yl)-((S)-2-fluoro-4-morpholin-2-yl-phenyl)-amine], the Ki at rat TAAR1 is 0.0051 µM.

As for `Brc1ccc(Nc2ccc([C@@H]3CNCCO3)cn2)nc1` [Example 108, (R)-5-Bromo-N-(5-(morpholin-2-yl)pyridin-2-yl)pyridin-2-amine], the Ki at rat TAAR1 stood at 0.216 µM.

For `Fc1cc([C@H]2CNCCO2)ccc1Nc1ncc(Br)cn1` [Example 127, (5-Bromo-pyrimidin-2-yl)-((S)-2-fluoro-4-morpholin-2-yl-phenyl)-amine], on rat TAAR1, the Ki worked out at 0.0165 µM.

Take `Fc1cc([C@@H]2CNCCO2)ccc1Nc1ncc(Br)cn1` [Example 126, (5-Bromo-pyrimidin-2-yl)-((R)-2-fluoro-4-morpholin-2-yl-phenyl)-amine]: the Ki at rat TAAR1 worked out at 0.0096 µM.

For `Fc1cc([C@@H]2CNCCO2)ccc1Nc1ncc(C2CC2)cn1` [Example 118, (5-Cyclopropyl-pyrimidin-2-yl)-((R)-2-fluoro-4-morpholin-2-yl-phenyl)-amine], on rat TAAR1, the Ki came out at 0.003 µM.

`Cc1cc([C@@H]2CNCCO2)ccc1Nc1ncc(C2CC2)cn1` [Example 110, (5-Cyclopropyl-pyrimidin-2-yl)-((R)-2-methyl-4-morpholin-2-yl-phenyl)-amine]: on rat TAAR1, the Ki came out at 0.0306 µM.

For `Brc1ccc(Nc2ccc([C@H]3CNCCO3)cn2)nc1` [Example 109, (S)-5-Bromo-N-(5-(morpholin-2-yl)pyridin-2-yl)pyridin-2-amine], the Ki on rat TAAR1 amounted to 0.362 µM.

For `Cc1cc([C@H]2CNCCO2)ccc1Nc1ncc(C2CC2)cn1` [Example 111, (5-Cyclopropyl-pyrimidin-2-yl)-((S)-2-methyl-4-morpholin-2-yl-phenyl)-amine], the Ki at rat TAAR1 turned out to be 0.0322 µM.
